Key:
[1] = Overall removal by ZIPGEM-nanofiltration water treatment system
Excerpt: (§1) Water samples collected from the C-23 canal were first fortified with PFOS and PFOA and then used as influents to the pretreatment column containing one of the two green sorption media. Note the water samples were not fortified with PFBA and PFBS. The green sorption media effluent served as the feedwater for the nanofiltration unit of the proposed water treatment system. The nanofiltration membrane unit without any green sorption media-based pretreatment served as the “control.” The integration of a green sorption media (CPS or ZIPGEM) with crossflow nanofiltration is herein referred to as a water treatment system, denoted as CPS-nanofiltration or ZIPGEM-nanofiltration. The CPS and ZIPGEM column influents and effluents and nanofiltration permeates were analyzed for both long-chain (PFOS and PFOA) and short-chain (PFBS and PFBA) PFAS. FIG. 3 presents the green sorption media-nanofiltration hybrid treatment scheme.
The average removal efficiencies of each media pretreatment were calculated based on PFAS concentrations in the influents and effluents of triplicate columns, as disclosed in TABLE 5. […] The overall efficiency of the hybrid treatment was calculated by comparing the average concentrations of PFAS in the influents of the green sorption media pretreatment columns and the nanofiltration permeates, as disclosed in TABLE 6.
where C0 is the concentration of PFAS in the column influent or nanofiltration feed in ng·L^−1, and where Ce is the concentration of PFAS in the column effluent or nanofiltration permeate in ng·L^−1. TABLE 7 summarizes the key findings of the green sorption media-based pretreatment and green sorption media-nanofiltration treatment, and these are explained in the subsequent subsection through an in-depth discussion and statistical analysis. It should be noted that PFOS concentration was slightly higher in the membrane permeates compared to the effluent of green sorption media pretreatment media, as disclosed in TABLE 5. The slight increase in PFOS concentration could be attributed to the filtration experimental setup that operated in a total recirculation mode. However, most of the differences were very close to the MDL for PFOS (1 ng·L^−1), which was already undetected in the green sorption media effluent

[2] = Fixed-bed column pretreatment of spiked C-23 canal water with CPS; settings: for Removal via column C3: CPS column 3, 9 h; for Removal via column C1 / Removal via column C2 / average removal percentage by media: CPS; for Removal via column C1 / Removal via column C2: 9 h; for average removal percentage by media: triplicate columns
Experimental: (§2) The water samples were collected from the same site of the C-23 canal during both the dry and wet seasons. However, only wet season water samples were used in the experiment. The water samples were analyzed for both long-chain (PFOA and PFOS) and short-chain (Perfluorobutanoic acid [PFBA] and Perfluorobutanesulfonic acid [PFBS]) PFAS following the modified EPA 537.1 method (Shoemaker & Tettenhorst, 2020). Through this method, an aliquot of a 250 mL water sample containing analytes and internal standards is extracted via solid phase extraction. The extracted analytes and internal standards are then eluted with methanol and ammonium hydroxide in methanol solvent. Then the eluted samples are dried with nitrogen and reconstituted to 1 mL volume with a buffer solution. The samples are then injected into a C18 liquid chromatography column, and the PFAS compounds are separated by a gradient of pure methanol and 20 mM ammonium acetate. Finally, the eluted compounds are detected, and their concentrations are measured via tandem mass spectrometry. The method detection limits (MDLs) for PFBA, PFBS, PFOA, and PFOS were 0.5 ng·L^−1, 2 ng·L^−1, 0.5 ng·L^−1, and 1 ng·L^−1, respectively. The concentration of calcium ion (Ca^2+) was analyzed at Eurofins Flowers's Chemical Laboratories (Altamonte Springs, Florida) following EPA method 6010D using inductively coupled plasma optical emission spectroscopy (MDL=0.096 mg·L^−1). Total organic carbon (TOC) and dissolved organic carbon (DOC) were measured using a TOC analyzer following EPA method 415.3.
as §1
(§3) C-23 canal water was stored in a walk-in refrigerator at […] after collection. For the pretreatment experiment, a total of 60 L of water was used as influents to the CPS and ZIPGEM columns. Although the raw water was spiked with 70 ng·L^−1 of PFOA and PFOS each, the short-chain PFAS (PFBA, PFBS) were at their indigenous concentrations. A peristaltic pump was used to deliver the water to the columns at a constant flowrate of 14 ml·min^−1. Three columns (triplicate) with 3 ft length and 4-inch diameter containing 2,600 ml of media were set up for each media, and all samples were analyzed in triplicate (FIG. 4). The fixed-bed column experiments were run for more than 48 h, and effluents were taken at different time intervals to be used as feedwaters for the nanofiltration treatment that followed. […] At least 5 L of column effluent were collected to be used as the nanofiltration feed, and the stated effluent at 9 h for CPS was collected from 0 h until 9 h, whereas effluent at 30 h for ZIPGEM was collected from 9 h until 30 h. The collected effluents from the column study were stored in a refrigerator until they were used for the nanofiltration experiment. FIG. 4 illustrates the experimental setup for the pretreatment CPS and ZIPGEM process.
(§4) The average removal efficiencies of each media pretreatment were calculated based on PFAS concentrations in the influents and effluents of triplicate columns, as disclosed in TABLE 5. […]

[3] = Fixed-bed column pretreatment of spiked C-23 canal water with ZIPGEM; settings: for Removal via column C1: ZIPGEM column 1, 30 h; for Removal via column C2: ZIPGEM column 2, 30 h; for Removal via column C3 / average removal percentage by media: ZIPGEM; for Removal via column C3: 30 h; for average removal percentage by media: triplicate columns
Experimental: as §2, §1, §3, §4

Row | SMILES | O = overall removal by water treatment system ([1]; column 1) [%] | O = overall removal by water treatment system ([1]; column 2) [%] | O = overall removal by water treatment system ([1]; column 3) [%] | Removal via column C3 [2] [%] | Removal via column C1 [2] [%] | Removal via column C2 [2] [%] | average removal percentage by media [2] | Removal via column C1 [3] [%] | Removal via column C2 [3] [%] | Removal via column C3 [3] [%] | average removal percentage by media [3]
1 | O=C(O)C(F)(F)C(F)(F)C(F)(F)F [PFBA, Perfluorobutanoic acid] | 40 | 36 | 41 | 29 | 21 | 24 | 25 | 5 | 5 | 8 | 6
2 | O=S(=O)(O)C(F)(F)C(F)(F)C(F)(F)C(F)(F)F [PFBS, Perfluorobutanesulfonic acid] | 28 | 35 | 35 | 25 | 20 | 27 | 24 | 6 | 5 | −1 | 3.3
3 | O=C(O)C(F)(F)C(F)(F)C(F)(F)C(F)(F)C(F)(F)C(F)(F)C(F)(F)F [PFOA, Perfluorooctanoic acid] | 73 | 82 | 70 | 88 | 96 | 85 | 90 | 19 | 19 | 4 | 14
4 | O=S(=O)(O)C(F)(F)C(F)(F)C(F)(F)C(F)(F)C(F)(F)C(F)(F)C(F)(F)C(F)(F)F [PFOS, Perfluorooctanesulfonic acid] | 100 | 100 | 100 | 100 | 100 | 100 | 100 | 100 | 100 | 100 | 100
